From PubChem BioAssay AID296 (DTP/NCI, 2004)
Values joined by “and” are separate entries in the source; they are usually repeats but may differ in a detail not shown here. Identical values can stand only once. Inconclusive results are not listed. Where a SMILES comes first, the peptide text is derived from it. Bridges are numbered along the chain shown (N, C = ends). Roman numbers before positions name the chains, in order. [ ]: non-standard residue; d: D form. The star is where a group is joined. Quinoxaline2carbonyl = O=C(c1cnc2ccccc2n1)*; NMeV = CN[CH](C(=O)O)C(C)C; NMeC = CN[CH](CS)C(=O)O

Tested on: MX-1 breast xenograft, nude mice, tumor weight T/C
Test: NCI In Vivo Anticancer Drug Screen. Data for tumor model Human Mammary Carcinoma MX-1 Xenograft (intrarenal inoculation) in NU/NU Swiss (nude) mice
Settings: endpoint: mean tumor weight change, higher = larger tumour
Procedure, shortened: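 Antitumour effect measured in vivo against vehicle controls, expressed as T/C.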

Structure (SMILES): COC1/C=C/C=C(/C)Cc2cc(O)c(Cl)c(c2)N(C)C(=O)CC(OC(=O)C(C)C)C2(C)OC2C(C)C2CC1(O)NC(=O)O2 (stereo not given)
- T/C (dose: 1.0 mg/kg/injection, schedule: Q04DX003 (sc), vehicle: saline + alcohol): 95 % of control
- T/C (dose: 2.0 mg/kg/injection, schedule: Q04DX003 (sc), vehicle: saline + alcohol): 78 % of control and 87 % of control (2×)
- T/C (dose: 16.0 mg/kg/injection, schedule: Q04DX003 (sc), vehicle: saline + alcohol): 3 % of control and -8 % of control

Structure (SMILES): CC(C)CCCCCCCCCCCCC(=O)NCC(=O)NC1C(C)OC(Nc2ncnc3nc[nH]c23)C(O)C1O (stereo not given)
- T/C (dose: 1.0 mg/kg/injection, schedule: Q01DX010 (sc), vehicle: distilled water + Tween-80): 68 % of control
- T/C (dose: 2.0 mg/kg/injection, schedule: Q01DX010 (sc), vehicle: distilled water + Tween-80): 75 % of control
- T/C (dose: 4.0 mg/kg/injection, schedule: Q01DX010 (sc), vehicle: distilled water + Tween-80): 55 % of control
- T/C (dose: 8.0 mg/kg/injection, schedule: Q01DX010 (sc), vehicle: distilled water + Tween-80): 25 % of control

Structure (SMILES): CC1=C(C)C(=O)O[C@@H]([C@](C)(O)[C@]2(O)CC[C@@]3(O)[C@@H]4C[C@H]5O[C@]56[C@@H](O)C=CC(=O)[C@]6(C)[C@H]4CC[C@]23C)C1
- T/C (dose: 16.0 mg/kg/injection, schedule: Q01DX010 (sc), vehicle: saline): 155 % of control
- T/C (dose: 32.0 mg/kg/injection, schedule: Q01DX010 (sc), vehicle: saline): 95 % of control
- T/C (dose: 64.0 mg/kg/injection, schedule: Q01DX010 (sc), vehicle: saline): 75 % of control

Structure (SMILES): CNc1cccnc1/C=N/NC(N)=S
- T/C (dose: 300.0 mg/kg/injection, schedule: Q04DX003 (sc), vehicle: saline with Tween-80): 114 % of control
- T/C (dose: 600.0 mg/kg/injection, schedule: Q04DX003 (sc), vehicle: saline with Tween-80): 61 % of control
- T/C (dose: 1200.0 mg/kg/injection, schedule: Q04DX003 (sc), vehicle: saline with Tween-80): 55 % of control
- T/C (dose: 2400.0 mg/kg/injection, schedule: Q04DX003 (sc), vehicle: saline with Tween-80): 77 % of control

Structure (SMILES): CCN(CC)CCn1[nH]c2c3ccc(=O)cc3sc3c(NCCN)ccc1c32
- T/C (dose: 6.25 mg/kg/injection, schedule: Q04DX003 (ip), vehicle: water): 73 % of control
- T/C (dose: 12.5 mg/kg/injection, schedule: Q04DX003 (ip), vehicle: water): 63 % of control

Structure (SMILES): O=C(O)/C=C/C(=O)Nc1ccc(Cl)c(Cl)c1
- T/C (dose: 50.0 mg/kg/injection, schedule: Q04DX003 (sc), vehicle: Klucel (hydroxypropylcellulose) (HPC)): 111 % of control
- T/C (dose: 100.0 mg/kg/injection, schedule: Q04DX003 (sc), vehicle: Klucel (hydroxypropylcellulose) (HPC)): 91 % of control
- T/C (dose: 400.0 mg/kg/injection, schedule: Q04DX003 (sc), vehicle: Klucel (hydroxypropylcellulose) (HPC)): 120 % of control

Structure (SMILES): CSc1ncnc2c1ncn2C1OC(CO)C(O)C1O (stereo not given)
- T/C (dose: 75.0 mg/kg/injection, schedule: Q04DX003 (sc), vehicle: saline + alcohol): 3 % of control and 14 % of control
- T/C (dose: 150.0 mg/kg/injection, schedule: Q04DX003 (sc), vehicle: saline + alcohol): -81 % of control and -100 % of control
- T/C (dose: 300.0 mg/kg/injection, schedule: Q04DX003 (sc), vehicle: saline + alcohol): -90 % of control

Structure (SMILES): N#CCCN(C(=S)Nc1cccc(C(F)(F)F)c1)C1CCCCC1
- T/C (dose: 300.0 mg/kg/injection, schedule: Q04DX003 (sc), vehicle: Klucel (hydroxypropylcellulose) (HPC)): 89 % of control
- T/C (dose: 2400.0 mg/kg/injection, schedule: Q04DX003 (sc), vehicle: Klucel (hydroxypropylcellulose) (HPC)): 106 % of control

Structure (SMILES): CC1NC(=O)C(NC(=O)c2cnc3ccccc3n2)COC(=O)C(C(C)C)N(C)C(=O)C2CSSCC(C(=O)N(C)C(C(C)C)C(=O)OCC(NC(=O)c3cnc4ccccc4n3)C(=O)NC(C)C(=O)N2C)N(C)C1=O (stereo not given) (I: Quinoxaline2carbonyl-SA[NMeC][NMeV] / II: Quinoxaline2carbonyl-SA[NMeC][NMeV]; ester I:1-II:C, I:C-II:1; disulfide I:3-II:3; configuration not given here)
- T/C (dose: 100.0 micrograms/kg/injection, schedule: Q04DX003 (sc), vehicle: Klucel (hydroxypropylcellulose) (HPC)): 63 % of control
- T/C (dose: 200.0 micrograms/kg/injection, schedule: Q04DX003 (sc), vehicle: Klucel (hydroxypropylcellulose) (HPC)): 62 % of control
- T/C (dose: 400.0 micrograms/kg/injection, schedule: Q04DX003 (sc), vehicle: Klucel (hydroxypropylcellulose) (HPC)): 73 % of control
- T/C (dose: 800.0 micrograms/kg/injection, schedule: Q04DX003 (sc), vehicle: Klucel (hydroxypropylcellulose) (HPC)): 46 % of control

Structure (SMILES): CC1CN1P1(N2CC2C)=NP(N2CC2C)(N2CC2C)=NP(N2CC2C)(N2CC2C)=N1 (stereo not given)
- T/C (dose: 18.75 mg/kg/injection, schedule: Q01DX010 (sc), vehicle: saline): 70 % of control
- T/C (dose: 25.0 mg/kg/injection, schedule: Q01DX010 (sc), vehicle: saline): 50 % of control
- T/C (dose: 37.5 mg/kg/injection, schedule: Q01DX010 (sc), vehicle: saline): 41 % of control
- T/C (dose: 50.0 mg/kg/injection, schedule: Q01DX010 (sc), vehicle: saline): 26 % of control
- T/C (dose: 75.0 mg/kg/injection, schedule: Q01DX010 (sc), vehicle: saline): 4 % of control
- T/C (dose: 100.0 mg/kg/injection, schedule: Q01DX010 (sc), vehicle: saline): -7 % of control
- T/C (dose: 150.0 mg/kg/injection, schedule: Q04DX003 (sc), vehicle: saline): 13 % of control
